Source: patent EP4707284A1, “HETEROCYCLIC COMPOUND AND USE THEREOF” (Otsuka Pharmaceutical Co., Ltd., priority 2023, dated 2024)

Assay type: physicochemical
Conditions: Tris-hydrochloric acid buffer (pH 7.5) 50 mmol/L, magnesium chloride 5 mmol/L, evaluation compound 1 µmol/L, 37°C, 60 minutes, average of duplicate
How it was run: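 Stability in buffer assessed as brexpiprazole formation: duplicate reactions at 37°C, started by adding compound to pre-warmed solution, quenched at 0 or 60 min with internal-standard-containing acetonitrile/isopropanol (4:1). Calibration curves covered 0.01, 0.1 and 1 µmol/L of compound and brexpiprazole.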

SMILES	Concentration of brexpiprazole formed	Concentration of evaluation compound decreased
CCOC(=O)C[C@@H](OP(=O)([O-])OC[N+]1(CCCCOc2ccc3ccc(=O)[nH]c3c2)CCN(c2cccc3sccc23)CC1)C(=O)OCC [EX 111]	0.00 µM	0.02 µM
C[C@@H]1CN(CCOP(=O)([O-])OC[N+]2(CCCCOc3ccc4ccc(=O)[nH]c4c3)CCN(c3cccc4sccc34)CC2)C[C@H](C)O1 [EX 116]	0.00 µM	0.09 µM
O=c1ccc2ccc(OCCCC[N+]3(COP(=O)([O-])OCCN4CCCCC4)CCN(c4cccc5sccc45)CC3)cc2[nH]1 [EX 118]	0.00 µM	0.06 µM
O=c1ccc2ccc(OCCCC[N+]3(COP(=O)([O-])OCCN4CCC(F)(F)CC4)CCN(c4cccc5sccc45)CC3)cc2[nH]1 [EX 119]	0.00 µM	0.14 µM
CCCC(=O)OCOP(=O)([O-])OC[N+]1(CCCCOc2ccc3ccc(=O)[nH]c3c2)CCN(c2cccc3sccc23)CC1 [EX 121]	0.00 µM	0.09 µM
CCC(C)(C)C(=O)OCOP(=O)([O-])OC[N+]1(CCCCOc2ccc3ccc(=O)[nH]c3c2)CCN(c2cccc3sccc23)CC1 [EX 122]	0.00 µM	0.05 µM
O=C(OCOP(=O)([O-])OC[N+]1(CCCCOc2ccc3ccc(=O)[nH]c3c2)CCN(c2cccc3sccc23)CC1)C12CC3CC(CC(C3)C1)C2 [EX 124]	0.00 µM	0.10 µM
O=C(CCCCCO)OCOP(=O)([O-])OC[N+]1(CCCCOc2ccc3ccc(=O)[nH]c3c2)CCN(c2cccc3sccc23)CC1 [EX 126]	0.00 µM	0.16 µM
O=C(OCOP(=O)([O-])OC[N+]1(CCCCOc2ccc3ccc(=O)[nH]c3c2)CCN(c2cccc3sccc23)CC1)C1CCOCC1 [EX 127]	0.00 µM	0.04 µM

Second part, the molecule after the results:

Concentration of brexpiprazole formed	Concentration of evaluation compound decreased	SMILES
0.00 µM	-0.02 µM	CCOCCOC(=O)[C@@H](C)OP(=O)([O-])OC[N+]1(CCCCOc2ccc3ccc(=O)[nH]c3c2)CCN(c2cccc3sccc23)CC1 [EX 109]
0.00 µM	0.07 µM	CCOC(=O)C(CC)OP(=O)([O-])OC[N+]1(CCCCOc2ccc3ccc(=O)[nH]c3c2)CCN(c2cccc3sccc23)CC1 (stereo not shown) [EX 110]
0.00 µM	0.05 µM	O=c1ccc2ccc(OCCCC[N+]3(COP(=O)([O-])OCC(F)F)CCN(c4cccc5sccc45)CC3)cc2[nH]1 [EX 115]
0.00 µM	0.05 µM	CN1CCN(CCOP(=O)([O-])OC[N+]2(CCCCOc3ccc4ccc(=O)[nH]c4c3)CCN(c3cccc4sccc34)CC2)CC1 [EX 117]
0.00 µM	0.05 µM	CCC(=O)OCOP(=O)([O-])OC[N+]1(CCCCOc2ccc3ccc(=O)[nH]c3c2)CCN(c2cccc3sccc23)CC1 [EX 120]
0.00 µM	-0.11 µM	CCCC(C)(C)C(=O)OCOP(=O)([O-])OC[N+]1(CCCCOc2ccc3ccc(=O)[nH]c3c2)CCN(c2cccc3sccc23)CC1 [EX 123]
0.00 µM	0.13 µM	O=C(CCO)OCOP(=O)([O-])OC[N+]1(CCCCOc2ccc3ccc(=O)[nH]c3c2)CCN(c2cccc3sccc23)CC1 [EX 125]
0.00 µM	-0.03 µM	CC(C)(C)OC(=O)NC(C)(C)C(=O)OCOP(=O)([O-])OC[N+]1(CCCCOc2ccc3ccc(=O)[nH]c3c2)CCN(c2cccc3sccc23)CC1 [EX 128]
